# Test results reported in PubChem BioAssay (NCI).
#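 All cell lines were grown in 96-well plates and treated with compound for 48 hours. Definition used: TGI = concentration required for complete inhibition of growth.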
# Key:
# Assay in all cases: NCI-60 cell line screen, 48 h
# SR leukemia = tested on: SR leukemia
# K-562 leukemia = tested on: K-562 leukemia
# M14 melanoma = tested on: M14 melanoma
# SW-620 colon = tested on: SW-620 colon
# HS 578T breast = tested on: HS 578T breast
# OVCAR-3 ovarian = tested on: OVCAR-3 ovarian
# OVCAR-5 ovarian = tested on: OVCAR-5 ovarian
# HCC-2998 colon = tested on: HCC-2998 colon
# MDA-MB-435 = tested on: MDA-MB-435
# SF-295 CNS = tested on: SF-295 CNS
# MDA-MB-231 breast = tested on: MDA-MB-231 breast
# RXF 393 renal = tested on: RXF 393 renal
# MOLT-4 leukemia = tested on: MOLT-4 leukemia
# NCI/ADR-RES ovarian = tested on: NCI/ADR-RES ovarian
# HCT-116 colon = tested on: HCT-116 colon
# SF-268 CNS = tested on: SF-268 CNS
# PC-3 prostate = tested on: PC-3 prostate
# HT29 colon = tested on: HT29 colon
# KM12 colon = tested on: KM12 colon
# SK-MEL-5 melanoma = tested on: SK-MEL-5 melanoma
# SK-MEL-2 melanoma = tested on: SK-MEL-2 melanoma
# CCRF-CEM leukemia = tested on: CCRF-CEM leukemia
# UO-31 renal = tested on: UO-31 renal
# SK-MEL-28 melanoma = tested on: SK-MEL-28 melanoma
# MCF7 breast = tested on: MCF7 breast
# BT-549 breast = tested on: BT-549 breast
# SK-OV-3 ovarian = tested on: SK-OV-3 ovarian
# A498 renal = tested on: A498 renal
# OVCAR-8 ovarian = tested on: OVCAR-8 ovarian
# RPMI-8226 leukemia = tested on: RPMI-8226 leukemia
# UACC-257 melanoma = tested on: UACC-257 melanoma
# NCI-H460 lung = tested on: NCI-H460 lung
# DU-145 prostate = tested on: DU-145 prostate
# IGROV1 ovarian = tested on: IGROV1 ovarian
# A549 NSCLC = tested on: A549 NSCLC
# SNB-19 CNS = tested on: SNB-19 CNS
# HOP-92 NSCLC = tested on: HOP-92 NSCLC
# COLO 205 colon = tested on: COLO 205 colon
# 786-0 renal = tested on: 786-0 renal
# MALME-3M melanoma = tested on: MALME-3M melanoma
# TK-10 renal = tested on: TK-10 renal
# HCT-15 colon = tested on: HCT-15 colon
# UACC-62 melanoma = tested on: UACC-62 melanoma
# U251 CNS = tested on: U251 CNS
# OVCAR-4 ovarian = tested on: OVCAR-4 ovarian
# SF-539 CNS = tested on: SF-539 CNS
# T-47D breast = tested on: T-47D breast
# HL-60(TB) leukemia = tested on: HL-60(TB) leukemia
# MDA-N = tested on: MDA-N
# LOX IMVI melanoma = tested on: LOX IMVI melanoma
# SNB-75 CNS = tested on: SNB-75 CNS
# NCI-H23 lung = tested on: NCI-H23 lung
# HOP-62 NSCLC = tested on: HOP-62 NSCLC
# SN12C renal = tested on: SN12C renal
# EKVX NSCLC = tested on: EKVX NSCLC
# ACHN renal = tested on: ACHN renal
# NCI-H522 lung = tested on: NCI-H522 lung
# CAKI-1 renal = tested on: CAKI-1 renal
# NCI-H226 lung = tested on: NCI-H226 lung
structure (smiles),measurement,setting,value
Clc1cc(OC23CC4CC(CC(C4)C2)C3)nc(Cl)n1,TGI,SR leukemia,48.4 µM
same,TGI,K-562 leukemia,> 100 µM
same,TGI,M14 melanoma,> 100 µM
same,TGI,SW-620 colon,> 100 µM
same,TGI,HS 578T breast,54.3 µM
same,TGI,OVCAR-3 ovarian,> 100 µM
same,TGI,OVCAR-5 ovarian,> 100 µM
same,TGI,HCC-2998 colon,29.6 µM
same,TGI,MDA-MB-435,> 100 µM
same,TGI,SF-295 CNS,> 100 µM
same,TGI,MDA-MB-231 breast,> 100 µM
same,TGI,RXF 393 renal,85.8 µM
same,TGI,MOLT-4 leukemia,> 100 µM
same,TGI,NCI/ADR-RES ovarian,> 100 µM
same,TGI,HCT-116 colon,> 100 µM
same,TGI,SF-268 CNS,> 100 µM
same,TGI,PC-3 prostate,> 100 µM
same,TGI,HT29 colon,> 100 µM
same,TGI,KM12 colon,> 100 µM
same,TGI,SK-MEL-5 melanoma,> 100 µM
same,TGI,SK-MEL-2 melanoma,> 100 µM
same,TGI,CCRF-CEM leukemia,86.2 µM
same,TGI,UO-31 renal,87.5 µM
same,TGI,SK-MEL-28 melanoma,> 100 µM
same,TGI,MCF7 breast,> 100 µM
same,TGI,BT-549 breast,> 100 µM
same,TGI,SK-OV-3 ovarian,> 100 µM
same,TGI,A498 renal,> 100 µM
same,TGI,OVCAR-8 ovarian,> 100 µM
same,TGI,RPMI-8226 leukemia,> 100 µM
same,TGI,UACC-257 melanoma,> 100 µM
same,TGI,NCI-H460 lung,> 100 µM
same,TGI,DU-145 prostate,> 100 µM
same,TGI,IGROV1 ovarian,> 100 µM
same,TGI,A549 NSCLC,> 100 µM
same,TGI,SNB-19 CNS,> 100 µM
same,TGI,HOP-92 NSCLC,3.5 µM
same,TGI,COLO 205 colon,> 100 µM
same,TGI,786-0 renal,> 100 µM
same,TGI,MALME-3M melanoma,> 100 µM
same,TGI,TK-10 renal,> 100 µM
same,TGI,HCT-15 colon,> 100 µM
same,TGI,UACC-62 melanoma,> 100 µM
same,TGI,U251 CNS,> 100 µM
same,TGI,OVCAR-4 ovarian,> 100 µM
same,TGI,SF-539 CNS,> 100 µM
same,TGI,T-47D breast,> 100 µM
same,TGI,HL-60(TB) leukemia,29.7 µM
same,TGI,MDA-N,> 100 µM
same,TGI,LOX IMVI melanoma,36.1 µM
same,TGI,SNB-75 CNS,> 100 µM
same,TGI,NCI-H23 lung,> 100 µM
same,TGI,HOP-62 NSCLC,> 100 µM
same,TGI,SN12C renal,> 100 µM
same,TGI,EKVX NSCLC,> 100 µM
same,TGI,ACHN renal,> 100 µM
same,TGI,NCI-H522 lung,> 100 µM
Cc1ccccc1OC(C)C(=O)NN1C(=O)CC(=O)NC1=S (stereo not given),TGI,SR leukemia,> 100 µM
same,TGI,K-562 leukemia,> 100 µM
same,TGI,M14 melanoma,> 100 µM
same,TGI,SW-620 colon,> 100 µM
same,TGI,HS 578T breast,> 100 µM
same,TGI,OVCAR-3 ovarian,> 100 µM
same,TGI,OVCAR-5 ovarian,> 100 µM
same,TGI,HCC-2998 colon,> 100 µM
same,TGI,MDA-MB-435,> 100 µM
same,TGI,SF-295 CNS,> 100 µM
same,TGI,MDA-MB-231 breast,> 100 µM
same,TGI,RXF 393 renal,> 100 µM
same,TGI,MOLT-4 leukemia,> 100 µM
same,TGI,NCI/ADR-RES ovarian,> 100 µM
same,TGI,HCT-116 colon,> 100 µM
same,TGI,SF-268 CNS,> 100 µM
same,TGI,PC-3 prostate,> 100 µM
same,TGI,HT29 colon,> 100 µM
same,TGI,KM12 colon,> 100 µM
same,TGI,SK-MEL-5 melanoma,> 100 µM
same,TGI,SK-MEL-2 melanoma,> 100 µM
same,TGI,UO-31 renal,> 100 µM
same,TGI,SK-MEL-28 melanoma,> 100 µM
same,TGI,MCF7 breast,> 100 µM
same,TGI,BT-549 breast,> 100 µM
same,TGI,SK-OV-3 ovarian,> 100 µM
same,TGI,A498 renal,> 100 µM
same,TGI,OVCAR-8 ovarian,> 100 µM
same,TGI,RPMI-8226 leukemia,> 100 µM
same,TGI,UACC-257 melanoma,> 100 µM
same,TGI,CAKI-1 renal,> 100 µM
same,TGI,NCI-H460 lung,> 100 µM
same,TGI,DU-145 prostate,> 100 µM
same,TGI,IGROV1 ovarian,> 100 µM
same,TGI,A549 NSCLC,> 100 µM
same,TGI,SNB-19 CNS,> 100 µM
same,TGI,HOP-92 NSCLC,> 100 µM
same,TGI,COLO 205 colon,> 100 µM
same,TGI,786-0 renal,> 100 µM
same,TGI,MALME-3M melanoma,> 100 µM
same,TGI,TK-10 renal,> 100 µM
same,TGI,HCT-15 colon,> 100 µM
same,TGI,UACC-62 melanoma,> 100 µM
same,TGI,NCI-H226 lung,> 100 µM
same,TGI,U251 CNS,> 100 µM
same,TGI,OVCAR-4 ovarian,> 100 µM
same,TGI,SF-539 CNS,> 100 µM
same,TGI,T-47D breast,> 100 µM
same,TGI,HL-60(TB) leukemia,> 100 µM
same,TGI,MDA-N,> 100 µM
same,TGI,LOX IMVI melanoma,> 100 µM
same,TGI,SNB-75 CNS,> 100 µM
same,TGI,NCI-H23 lung,> 100 µM
same,TGI,HOP-62 NSCLC,> 100 µM
same,TGI,SN12C renal,> 100 µM
same,TGI,EKVX NSCLC,> 100 µM
same,TGI,ACHN renal,> 100 µM
same,TGI,NCI-H522 lung,> 100 µM
